Consider 13 molecules from patent publication US20100292231A1, “Indazole Compounds for Treating Inflammatory Disorders, Demyelinating Disorders and Cancers” (priority 2007, published 2010).

Assay [1] has as its target T1, FLT3 (Homo sapiens, UniProt P36888).
T1 construct: purchased Invitrogen (SelectScreen platform)
T1 sequence (P36888 27-993): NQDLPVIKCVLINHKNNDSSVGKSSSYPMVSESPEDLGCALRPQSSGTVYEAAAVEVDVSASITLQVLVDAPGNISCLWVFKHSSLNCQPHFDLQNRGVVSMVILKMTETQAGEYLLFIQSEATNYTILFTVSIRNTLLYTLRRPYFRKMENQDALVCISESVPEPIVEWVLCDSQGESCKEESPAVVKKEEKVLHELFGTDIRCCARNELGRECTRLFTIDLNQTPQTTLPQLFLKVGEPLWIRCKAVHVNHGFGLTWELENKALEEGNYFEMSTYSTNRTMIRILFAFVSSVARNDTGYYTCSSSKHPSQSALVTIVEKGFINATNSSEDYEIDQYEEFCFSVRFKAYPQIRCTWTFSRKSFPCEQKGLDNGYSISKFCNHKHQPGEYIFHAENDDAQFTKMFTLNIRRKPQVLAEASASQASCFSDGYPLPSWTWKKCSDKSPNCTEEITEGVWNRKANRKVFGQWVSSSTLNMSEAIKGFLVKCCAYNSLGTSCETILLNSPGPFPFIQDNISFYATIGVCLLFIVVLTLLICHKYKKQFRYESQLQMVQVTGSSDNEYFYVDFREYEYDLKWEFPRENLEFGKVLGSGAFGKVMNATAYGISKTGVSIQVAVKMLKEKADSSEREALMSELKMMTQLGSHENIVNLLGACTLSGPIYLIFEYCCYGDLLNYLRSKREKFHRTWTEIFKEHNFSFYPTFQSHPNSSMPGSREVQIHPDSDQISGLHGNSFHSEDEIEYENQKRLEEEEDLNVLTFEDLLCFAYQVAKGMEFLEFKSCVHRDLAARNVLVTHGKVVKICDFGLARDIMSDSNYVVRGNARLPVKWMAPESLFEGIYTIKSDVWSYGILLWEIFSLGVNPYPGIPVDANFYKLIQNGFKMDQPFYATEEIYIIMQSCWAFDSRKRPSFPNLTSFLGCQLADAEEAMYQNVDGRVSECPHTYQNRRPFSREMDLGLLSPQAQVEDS
As to the kind of experiment: SelectScreen FLT3 kinase dose response assay. As to conditions: ATP 100 micromolar; for inhibition at 1 µM: read-out: FLT3 Inhibition E1000 (percent inhibition at 1000 nMolar); for EC50: dose response, 4 parameter Hill equation, read-out: FLT3 Inhibition EC50. Format: biochemical. As to the method: The terms “IC50” and “EC50” are used interchangeably. As used herein, “EC50” refers to nMolar concentration at median percent inhibition determined by dose respose (DR) assay. As used herein, the term “E1000” refers to percent inhibition at 1000 nMolar determined by assay.
Testing of the compounds described in this invention was carried out using the SelectScreen™ platform from Invitrogen, Inc. (Carlsbad. Calif., USA) and the details of its performance are readily viewed via the web by linking to: http://www.invitrogen.com/downloads/SelectScrn_Brochure.pdf.
Briefly, the approach is based on treating each specific kinase with a unique substrate and optical reporter system in the presence of ATP at 100 micromolar. In controls, the substrate is phosphorylated and a baseline optimal response is recorded.
The compounds were then re-tested by adding graded amounts of putative inhibitor which were added in 5 separate increments to generate a dose response curve. The latter is obtained by fitting to a 4 parameter Hill equation, a sigmoid saturation equation.
For the compounds of this invention, the experimental conditions were as follows. The 2× FLT3/Tyr 02 peptide mixture was prepared in 50 mM HEPES pH 7.5, 0.01 BRIJ-35, 10 mM MgCl2, 1 mM EGTA. The final 10 uL kinase reaction consists of 0.6-76.0 ng FLT3 and 2 uM Tyr 02 peptide in 50 mM HEPES pH 7.5, 0.01% BRIJ-35, 10 mM MgCl2, 1 mM EGTA. After 1 hour kinase reaction incubation, 5 uL of a 1:64 dilution of development reagent A was added.

Assay [2] relates to MdaMb231 cells. As to the kind of experiment: in vitro scratch (cell migration) assay. It counts as cell-based. As to conditions: for concentration resulting in inhibition of cell motility / migration: Mda231 cells, after 48 hrs; for Migration: Table 5 summary, concentration inhibiting migration. As to the method:
The in vitro scratch assay is used to determine the ability of cancer cells to migrate into and close an open wound; such migration is considered to have a role in metastasis of tumor cells.
Cells were plated in gelatin-coated 6-well plates and grown until a confluent monolayer was formed. When confluent, a straight scratch was made with a p200 pipette tip, cells were washed and compounds were added at concentrations of 1 μM, 2.5 μM, 5 μM, 10 μM and 20 μM. Images were taken at specific reference points at 0, 24 and 48 hours with Zeiss Axiovert 40 CFL microscope and Axiocam MRc5 camera and the ability of the cells to move in and close the wound was measured.
The data is presented in FIG. 1, which is a bar plot of percent cell migration into the “wound” in each sample (measured with respect to the control) and FIG. 2, which is a plot of percent wound confluence as a function of time (measured with respect to the control).

Assay [3] deals with T2, MLCK (Homo sapiens, UniProt Q9H1R3).
T2 construct: purchased Invitrogen (SelectScreen platform)
Put plainly: Kinase EC50 (10 pt curve or estimate, ATP Kmapp). Format: biochemical. As to conditions: from 10 pt curve or estimate based on 1 μm inhibition assay at ATP Kmapp.

Bounds are passed on as bounds.

Broadly, the inhibition is the change of the read-out against control, counted positive when it falls. Broadly, the EC50 is the midpoint of the concentration-response curve.

In the case of `CN(C)CCCCCNc1ccc2ncn3c4ccc5[nH]ncc5c4c(=O)c1c23` [(III)], in assay [1] (1000 nMolar compound), the inhibition at 1 µM was found to be 100%. Further, in assay [1], the EC50 came to 4 nM.

As for `CN(C)c1ccc2ncn3c4ccc5[nH]ncc5c4c(=O)c1c23` [(IX)], in assay [1] (1000 nMolar compound), the inhibition at 1 µM is 98%. In addition, in assay [1], the EC50 stood at 9 nM.

Consider `CCN(CC)c1ccc2ncn3c4ccc5[nH]ncc5c4c(=O)c1c23` [(VI)], for which the inhibition at 1 µM in assay [1] (1000 nMolar compound) came to 100%. In assay [1], the EC50 is 5 nM.

For the molecule `CNc1ccc2ncn3c4ccc5[nH]ncc5c4c(=O)c1c23` [(VII)], the inhibition at 1 µM in assay [1] (1000 nMolar compound) came out at 99%. Besides, the EC50 in assay [1] was found to be 5 nM.

`CCN(CC)CCNc1ccc2ncn3c4ccc5[nH]ncc5c4c(=O)c1c23` [(VIII)]: the inhibition at 1 µM in assay [1] (1000 nMolar compound) worked out at 87%. In assay [1], the EC50 is 69 nM.

On to `O=c1c2c(NCCCN3CCOCC3)ccc3ncn(c4ccc5[nH]ncc5c14)c32` [(X)], for which, in assay [1] (1000 nMolar compound), the inhibition at 1 µM was found to be 98%. Further, the EC50 in assay [1] was determined as 11 nM. Further, in assay [2], the “concentration resulting in inhibition of cell motility / migration” value came out at 5 µM and the Migration is 5 μm. Also, the EC50 in assay [3] was 52 nM.

Take `CN(C)CCNc1ccc2ncn3c4ccc5[nH]ncc5c4c(=O)c1c23` [(XII)]: the inhibition at 1 µM in assay [1] (1000 nMolar compound) stood at 98%. For the same molecule, the EC50 in assay [1] amounted to 11 nM. For the same molecule, in assay [2], the “concentration resulting in inhibition of cell motility / migration” value was 5 µM and the Migration is listed as above 5 μm. The EC50 in assay [3] was 18 nM.

Turning to `CC(CCN1CCOCC1)Nc1ccc2ncn3c4ccc5[nH]ncc5c4c(=O)c1c23` (centres unmarked) [(XVI)], in assay [1] (1000 nMolar compound), the “FLT3 Inhibition E1000 (percent inhibition at 1000 nMolar)” value is 98% and the inhibition at 1 µM stood at 99%. In addition, in assay [2], the “concentration resulting in inhibition of cell motility / migration” value was determined as 5 µM and the Migration is listed as 1 μm. For the same molecule, the EC50 in assay [3] is 53 nM.

`CN1CCN(CCCNc2ccc3ncn4c5ccc6[nH]ncc6c5c(=O)c2c34)CC1` [(XVII)]: the inhibition at 1 µM in assay [1] (1000 nMolar compound) is 99%. Further, the EC50 in assay [1] came out at 8 nM. In addition, in assay [2], the “concentration resulting in inhibition of cell motility / migration” value was 5 µM and the Migration came out at 5 μm. The EC50 in assay [3] was 9 nM.

For `CN(C)CCCNc1ccc2ncn3c4ccc5[nH]ncc5c4c(=O)c1c23` [Compound (IV)], in assay [1] (1000 nMolar compound), the inhibition at 1 µM came out at 98%. The EC50 in assay [1] came out at 14 nM. In addition, in assay [2], the “concentration resulting in inhibition of cell motility / migration” value came out at 5 µM and the Migration stood at 1 μm. Moreover, in assay [3], the EC50 was 21 nM.

As to `O=c1c2c(NCCN3CCOCC3)ccc3ncn(c4ccc5[nH]ncc5c14)c32` [Compound (V)], the inhibition at 1 µM in assay [1] (1000 nMolar compound) is 95%. Also, the EC50 in assay [1] was found to be 30 nM.

With `CCN(CC)CCCNc1ccc2ncn3c4ccc5[nH]ncc5c4c(=O)c1c23` [Compound (XV)], the inhibition at 1 µM in assay [1] (1000 nMolar compound) is 99%. For the same molecule, in assay [1], the EC50 came out at 11 nM. In assay [2], the “concentration resulting in inhibition of cell motility / migration” value is 1 µM and the Migration stood at 1 μm. Besides, in assay [3], the EC50 was 8 nM.

With `CCN(CC)CCNc1ccc2ncn3c4ccc(O)cc4c(=O)c1c23` [Symadex, 5-(2-(diethylamino)ethylamino)-8-hydroxy-6H-imidazo[4,5,1-de]acridin-6-one, reference compound], the inhibition at 1 µM in assay [1] (1000 nMolar compound) was determined as 96%. Besides, the EC50 in assay [1] stood at 24 nM. In assay [2], the “concentration resulting in inhibition of cell motility / migration” value amounted to 10 µM and the Migration is 10 μm. Further, in assay [3], the EC50 is 95 nM.
